Key:
Der f 1 = molecular target: T1, Der f 1 (Dermatophagoides farinae, UniProt P16311); assay: ELISA efficacy determination protocol, allergen neutralization versus Der f 1; type: biochemical; conditions: for % of Allergen Neutralized: Versus Der f 1, 0.26 wt.% active ion in composition before sample preparation, pH 3.5, normalized to water control
T1 construct: Add 1.0 ml of 20 ug/ml Dermatophagoides farinae mite extract; from tissue; host or cells: Dermatophagoides farinae mite extract (crude)
T1 sequence (P16311 99-321): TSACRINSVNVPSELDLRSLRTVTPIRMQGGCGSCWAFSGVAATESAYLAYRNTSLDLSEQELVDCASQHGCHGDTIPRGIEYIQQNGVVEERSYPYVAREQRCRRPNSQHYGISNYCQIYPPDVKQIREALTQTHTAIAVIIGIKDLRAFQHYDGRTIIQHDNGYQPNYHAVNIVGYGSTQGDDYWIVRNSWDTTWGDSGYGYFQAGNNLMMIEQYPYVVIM
Text: (§1) The efficacy of an allergen neutralization composition can be determined by the ELISA protocol. Enzyme-linked immunosorbent assay (“ELISA”) is a highly sensitive assay technique for detection and measurement of antigens or antibodies in solution. The assay uses enzyme-linked antigens or antibodies to amplify an antigen-antibody reaction. A single enzyme-linked antibody-antigen complex can convert orders of magnitude more of colorless substrate molecules into detectable colored products, thus considerably amplifying the original antigen-antibody reaction. The antigen or antibody is adsorbed onto the surface of the well of a microtiter plate, and all the relevant reactions take place in solution inside the well. While the following protocol will be easily understood by those skilled in the art, for a more detailed explanation please see Konishi, E. and Uehara, K. Enzyme-linked immunosorbent assay for quantifying antigens of Dermatophagoides farinae and D. pteronyssinus (Acari: Pyroglyphidae) in house dust samples, 1990, Entomologist Society of America, 27 (6), p. 993-998.
(§2) It is understood that those skilled in the art of allergen suppression will be aware of numerous variations to the protocol given below. For example, the monoclonal antibody may be substituted with a similar antibody, for example Der f 1 for Der f 2. But a standard, in this case water, is used and the results for the samples that contain active ingredients are normalized against the standard and the results reported as percentage of allergen remaining. That is, the amount of allergen that is not neutralized. Thus, the allergen neutralization results for similar, but not identical antibodies should be substantially the same when normalized to the standard. Both Der f 1 and Der f 2 were tested for various compositions. Der f 1 was chosen as the standard for the present Efficacy Determination Protocol.
(§3) At least two samples are prepared. One sample contains only distilled water and samples of one or more allergen neutralization compositions containing the allergen neutralization active, for example Al2(SO4)3, tannin, etc. The samples are all treated according to the same protocol, and the distilled water sample is used as the control. All samples are prepared as follows:
(§4) 1) Add 1.0 ml of 20 ug/ml Dermatophagoides farinae mite extract to 0.8 ml of the sample composition (either the allergen neutralization composition or water for the control). Mix well and let sit for 1 hour at room temp.
(§5) 2) Add 2.2 ml of 20% skim milk in Phosphate Buffer Saline (PBS).
(§6) 3) Mix well by vortexing and centrifuge at 12000 rpm (approx. 17000×g) for 1 hour.
(§7) 4) The supernatant is used for the ELISA protocol.
(§8) Each well of a microplate is coated at 4° C. overnight with 100 μl of Der f 2 monoclonal antibody (clone 15E11, from Asahi Breweries., AB-A-4) at a protein concentration of 2 μg per ml of Phosphate Buffer Saline (PBS), pH 7.4 containing 0.1% sodium azide. The monoclonal antibody is discarded and the plate is incubated with 100 μl of 1% BSA PBS containing 0.1% sodium azide for 1 hour. The plate is washed 3 times with PBS containing 0.05% Tween 20 (PBS-T). 100 μl of an allergen sample is added and incubated for 1 hour at 37° C.
(§9) Use 3×dilutions of a reference Dermatophagoides farinae crude extract (commercially available from LSL) to make the standard curve. The curve is made using 6.9 nanogram-mite extract equivalent/ml to 5 microgram-mite extract equivalent/ml. Wash plate with PBS-T for 3 times. 100 μl of Horse Radish Peroxidase (HRP) conjugated anti Der f 2 antibody (clone 13A4) is added at 40 ng/ml and the plate is incubated at 37° C. for 1 hour. The plate is then washed with PBS-T 3 times and then washed with water 3 times. The wells are incubated with 100 μl of o-phenylene diamine at 2.0 mg/ml of 0.1M phosphate buffer (pH 6.2) containing 0.03% H2O2. The enzyme reaction is terminated by adding 50 μl of 2 M H2SO4.
(§10) The absorbance of the sample is read at 490 nm with a cell length of 1 cm. […]

Der f 2 = molecular target: T2, Der f 2 (Dermatophagoides farinae, UniProt Q00855); assay: ELISA efficacy determination protocol, allergen neutralization versus Der f 2; type: biochemical; conditions: 0.26 wt.% active ion in composition before sample preparation, pH 3.5, normalized to water control
T2 construct: Add 1.0 ml of 20 ug/ml Dermatophagoides farinae mite extract; from tissue; host or cells: Dermatophagoides farinae mite extract (crude)
T2 sequence (Q00855 18-146): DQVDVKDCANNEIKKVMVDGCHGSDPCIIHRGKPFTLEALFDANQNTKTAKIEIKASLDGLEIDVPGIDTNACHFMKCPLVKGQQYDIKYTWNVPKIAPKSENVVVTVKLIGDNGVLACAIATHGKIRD
Text: as §1, §2, §3, §4, §5, §6, §7, §8, §9, §10

Compound | % of Allergen Neutralized (Der f 1) | % of Allergen Neutralized (Der f 2) | performance at deactivating dust mite allergens (Der f 1; statement in words on Table I)
O=S(=O)([O-])[O-].O=S(=O)([O-])[O-].O=S(=O)([O-])[O-].[Al+3].[Al+3] [Al2(SO4)3] | 66% | 6% | 
CC(O)C(=O)[O][Al]([O]C(=O)C(C)O)[O]C(=O)C(C)O (stereo not shown) [Al Lactate, reference compound] | 30% | 17% | 
O=[N+]([O-])[O-].O=[N+]([O-])[O-].O=[N+]([O-])[O-].[Al+3] [Al(NO3)3] | 93% | 50% | 
[Cl][Al]([Cl])[Cl] [AlCl3] | 85% | 17% | 
O=S(=O)([O-])[O-].O=S(=O)([O-])[O-].[Al+3].[K+] [AlK(SO4)2] | 65% | 23% | 
aluminum chlorohydrate [Al(OH)Cl2, reference compound] | 59% | 3% | relatively poor performance
